Measurements reported in the Kinase Knowledgebase extract (Sharma et al. 2016).
Values joined by “and” are separate entries in the source; they are usually repeats but may differ in a detail not shown here. Equal entries are not always repeated.

Target: MAPK14 (human) (UniProt Q16539)
Assay: Inhibition of LPS Stimulated TNF Production by U937 Cells
Settings: for inhibition: concentration not given here

MAPK14 (human), sequence (Q16539 whole entry, looked up): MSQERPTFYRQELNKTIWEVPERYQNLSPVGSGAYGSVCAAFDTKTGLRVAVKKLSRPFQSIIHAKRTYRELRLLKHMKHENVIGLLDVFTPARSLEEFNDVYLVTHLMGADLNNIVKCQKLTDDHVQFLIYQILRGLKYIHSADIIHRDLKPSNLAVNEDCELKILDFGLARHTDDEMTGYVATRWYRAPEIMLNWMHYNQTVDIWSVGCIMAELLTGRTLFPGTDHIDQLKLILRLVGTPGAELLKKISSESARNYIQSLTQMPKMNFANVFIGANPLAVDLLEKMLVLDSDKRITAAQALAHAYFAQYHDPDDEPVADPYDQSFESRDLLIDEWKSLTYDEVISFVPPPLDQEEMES

Row | Compound | inhibition [%] | IC50
1 | O=C(NCCCc1[nH]nc(-c2ccc(F)cc2)c1-c1ccncc1)NCC1CC1 | 36 | –
2 | O=C(NCCCc1[nH]nc(-c2ccc(F)cc2)c1-c1ccncc1)NCc1ccccn1 | 10 | –
3 | C[C@H](NC(=O)c1cc2ccccc2s1)c1[nH]nc(-c2ccc(F)cc2)c1-c1ccncc1 | 48 | –
4 | Cc1n[nH]c(-c2ccc(F)c(F)c2)c1-c1ccncc1 | – | 329 nM
5 | CN(C(=O)NCCc1[nH]nc(-c2ccc(F)cc2)c1-c1ccncc1)c1ccccc1 | 41 | –
6 | CC(Nc1cc(-c2c[nH]nc2-c2ccc(F)cc2)ccn1)c1ccc(F)cc1 (stereo not given) | – | 4.4 nM
7 | Cc1c(Cl)cccc1S(=O)(=O)N[C@H](C)c1[nH]nc(-c2ccc(F)cc2)c1-c1ccncc1 | 71 | –
8 | C[C@H](NS(=O)(=O)c1ccc(Cl)c(Cl)c1)c1[nH]nc(-c2ccc(F)cc2)c1-c1ccncc1 | 90 | –
9 | CC(C)(C)C(=O)N[C@@H](Cc1ccccc1)c1[nH]nc(-c2ccc(F)cc2)c1-c1ccncc1 | 22 | –
10 | C[C@@H](NC(=O)c1c(F)ccc(F)c1F)c1[nH]nc(-c2ccc(F)cc2)c1-c1ccncc1 | 73 | –
11 | C[C@H](NS(=O)(=O)c1ccc(F)cc1Cl)c1[nH]nc(-c2ccc(F)cc2)c1-c1ccncc1 | 85 | –
12 | Fc1ccc(-c2[nH]nc(-c3ccccc3)c2-c2ccncc2)cc1 | – | 77 nM
13 | COc1ccc(CC(=O)N[C@H](C)c2[nH]nc(-c3ccc(F)cc3)c2-c2ccncc2)cc1OC | 28 | –
14 | COc1ccc(S(=O)(=O)N[C@H](C)c2[nH]nc(-c3ccc(F)cc3)c2-c2ccncc2)cc1OC | 25 | –
15 | Cc1ccccc1C(=O)NCc1[nH]nc(-c2ccc(F)cc2)c1-c1ccncc1 | 11 | –
16 | O=C(N[C@H](Cc1ccccc1)c1[nH]nc(-c2ccc(F)cc2)c1-c1ccncc1)[C@@H]1CCCN1 | 11 | –
17 | C[C@@H](NC(=O)c1ccc(Cl)cc1)c1[nH]nc(-c2ccc(F)cc2)c1-c1ccncc1 | 36 | –
18 | C[C@H](NS(=O)(=O)c1cccc2ccccc12)c1[nH]nc(-c2ccc(F)cc2)c1-c1ccncc1 | 80 | –
19 | C[C@@H](NC(=O)c1ccccc1C(F)(F)F)c1[nH]nc(-c2ccc(F)cc2)c1-c1ccncc1 | – | 640 nM
20 | O=[N+]([O-])c1cc(S(=O)(=O)NCc2[nH]nc(-c3ccc(F)cc3)c2-c2ccncc2)ccc1Cl | 15 | –
21 | COc1cc(NC(=O)CCNC(=O)Cn2nc(-c3ccc(F)cc3)c(-c3ccncc3)c2C)cc2ccccc12 | – | 4220 nM
22 | C[C@H](NC(=O)c1ccccc1Br)c1[nH]nc(-c2ccc(F)cc2)c1-c1ccncc1 | 39 | –
23 | O=C(Cc1cccc2ccccc12)NCc1[nH]nc(-c2ccc(F)cc2)c1-c1ccncc1 | 21 | –

Row | Compound | inhibition [%] | IC50
24 | Cc1c(C)c(S(=O)(=O)NCc2[nH]nc(-c3ccc(F)cc3)c2-c2ccncc2)c(C)c2c1OC(C)(C)CC2 | 11 | –
25 | O=S(=O)(c1cccc(Br)c1)N1CCC(c2[nH]nc(-c3ccc(F)cc3)c2-c2ccncc2)CC1 | – | > 1000 nM
26 | O=S(=O)(NCCc1[nH]nc(-c2ccc(F)cc2)c1-c1ccncc1)c1cccc(Cl)c1Cl | 21 | –
27 | C[C@@H](NC(=O)c1ccc(F)c(F)c1)c1[nH]nc(-c2ccc(F)cc2)c1-c1ccncc1 | 52 | –
28 | C[C@H](NS(=O)(=O)c1ccc(-c2ccon2)s1)c1[nH]nc(-c2ccc(F)cc2)c1-c1ccncc1 | 95 | –
29 | C[C@H](NC(=O)c1c(F)cccc1C(F)(F)F)c1[nH]nc(-c2ccc(F)cc2)c1-c1ccncc1 | 59 | –
30 | C[C@H](NS(=O)(=O)c1cccc(Cl)c1Cl)c1[nH]nc(-c2ccc(F)cc2)c1-c1ccncc1 | 78 | –
31 | C[C@@H](NS(=O)(=O)Cc1ccccc1[N+](=O)[O-])c1[nH]nc(-c2ccc(F)cc2)c1-c1ccncc1 | 91 | –
32 | Fc1ccc(-c2n[nH]cc2-c2ccnc(NCc3cccc(F)c3)c2)cc1 | – | 141 nM
33 | C[C@H](NC(=O)c1cc(Cl)cc(Cl)c1)c1[nH]nc(-c2ccc(F)cc2)c1-c1ccncc1 | 3 | –
34 | NC(=O)N[C@@H](Cc1ccccc1)c1[nH]nc(-c2ccc(F)cc2)c1-c1ccncc1 | 17 | –
35 | O=C(NCCCc1[nH]nc(-c2ccc(F)cc2)c1-c1ccncc1)NCCCn1ccnc1 | – | > 1000 nM
36 | O=C(N[C@H](Cc1ccccc1)c1[nH]nc(-c2ccc(F)cc2)c1-c1ccncc1)[C@H]1CCCN1 | 2 | –
37 | C[C@@H](NC(=O)c1cc(Cl)cc(Cl)c1)c1[nH]nc(-c2ccc(F)cc2)c1-c1ccncc1 | 11 | –
38 | O=C(NCc1[nH]nc(-c2ccc(F)cc2)c1-c1ccncc1)[C@H]1CCCN1 | – | > 1000 nM
39 | CCc1ccccc1NC(=O)NCc1[nH]nc(-c2ccc(F)cc2)c1-c1ccncc1 | 21 | –
40 | CC(C)NC(=O)N[C@@H](C)c1[nH]nc(-c2ccc(F)cc2)c1-c1ccncc1 | 47 | –
41 | CC1(C)[C@H]2CC[C@@]1(CS(=O)(=O)NCc1[nH]nc(-c3ccc(F)cc3)c1-c1ccncc1)C(=O)C2 | 20 | –
42 | Cc1ccc(C(=O)N[C@H](Cc2ccccc2)c2[nH]nc(-c3ccc(F)cc3)c2-c2ccncc2)cc1 | – | > 1000 nM
43 | C[C@H](NC(=O)Nc1ccc(F)cc1)c1[nH]nc(-c2ccc(F)cc2)c1-c1ccncc1 | 26 | –
44 | C[C@@H](NS(=O)(=O)c1cccc(Cl)c1Cl)c1[nH]nc(-c2ccc(F)cc2)c1-c1ccncc1 | 83 | –
45 | C#CCn1ncc(-c2ccncc2)c1-c1ccc(F)cc1 | – | > 10000 nM
46 | O=C(NCc1[nH]nc(-c2ccc(F)cc2)c1-c1ccncc1)c1cc(F)c(F)cc1F | 36 | –

Row | Compound | inhibition [%] | IC50
47 | O=C(NCc1[nH]nc(-c2ccc(F)cc2)c1-c1ccncc1)c1ccccc1C(F)(F)F | – | 3950 nM
48 | CCNC(=O)N[C@@H](C)c1[nH]nc(-c2ccc(F)cc2)c1-c1ccncc1 | 50 | –
49 | C[C@H](NC(=O)c1ccccc1Cl)c1[nH]nc(-c2ccc(F)cc2)c1-c1ccncc1 | 48 | –
50 | CC(=O)OC(C)(C)C(=O)N[C@@H](C)c1[nH]nc(-c2ccc(F)cc2)c1-c1ccncc1 | – | 870 nM
51 | Cc1ccccc1S(=O)(=O)N[C@@H](C)c1[nH]nc(-c2ccc(F)cc2)c1-c1ccncc1 | 94 | –
52 | O=S(=O)(NCc1[nH]nc(-c2ccc(F)cc2)c1-c1ccncc1)c1ccc(F)cc1Cl | 40 | –
53 | C=CCNC(=O)N[C@H](C)c1[nH]nc(-c2ccc(F)cc2)c1-c1ccncc1 | 48 | –
54 | C[C@H](NC(=O)c1cccc(C(F)(F)F)c1F)c1[nH]nc(-c2ccc(F)cc2)c1-c1ccncc1 | 15 | –
55 | O=C(COc1ccc(Cl)cc1)NCc1[nH]nc(-c2ccc(F)cc2)c1-c1ccncc1 | – | 1250 nM
56 | O=C(c1ccccc1F)N1CCC(c2[nH]nc(-c3ccc(F)cc3)c2-c2ccncc2)CC1 | – | 410 nM
57 | OCCn1cc(-c2ccnc(F)c2)c(-c2ccc(F)cc2)n1 | – | 2670 nM
58 | O=S(=O)(NCc1[nH]nc(-c2ccc(F)cc2)c1-c1ccncc1)c1ccccc1Cl | 70 | –
59 | C[C@@H](NS(=O)(=O)c1ccccc1C#N)c1[nH]nc(-c2ccc(F)cc2)c1-c1ccncc1 | 81 | –
60 | O=C(c1ccc(Br)cc1)N1CCC(c2[nH]nc(-c3ccc(F)cc3)c2-c2ccncc2)CC1 | – | 1380 nM
61 | C[C@H](NS(=O)(=O)c1ccc(F)c(Cl)c1)c1[nH]nc(-c2ccc(F)cc2)c1-c1ccncc1 | 85 | –
62 | C[C@H](NC(=O)N[C@H](C)c1[nH]nc(-c2ccc(F)cc2)c1-c1ccncc1)c1ccccc1 | 25 | –
63 | C[C@@H](NC(=O)Nc1ccc(F)cc1)c1[nH]nc(-c2ccc(F)cc2)c1-c1ccncc1 | 35 | –
64 | OCCn1cc(-c2ccnc(/C=C/c3ccc(F)cc3)c2)c(-c2ccc(F)cc2)n1 | – | 347 nM
65 | O=C(NCc1[nH]nc(-c2ccc(F)cc2)c1-c1ccncc1)c1ccccc1Br | 50 | –
66 | CC(C)C(=O)NCc1[nH]nc(-c2ccc(F)cc2)c1-c1ccncc1 | – | 650 nM
67 | OCCn1cc(-c2ccncc2)c(-c2ccc(F)cc2)n1 | – | 198 nM
68 | O=C(NCCCc1[nH]nc(-c2ccc(F)cc2)c1-c1ccncc1)NC1CN2CCC1CC2 (stereo not given) | – | > 1000 nM
69 | C[C@H](NS(=O)(=O)c1cccc2nonc12)c1[nH]nc(-c2ccc(F)cc2)c1-c1ccncc1 | 78 | –

Row | Compound | inhibition [%] | IC50
70 | O=C(NCc1[nH]nc(-c2ccc(F)cc2)c1-c1ccncc1)Nc1ccccc1OC(F)(F)F | 25 | –
71 | CCOC(=O)NCc1[nH]nc(-c2ccc(F)cc2)c1-c1ccncc1 | 48 | –
72 | C[C@H](NS(=O)(=O)c1cn(C)cn1)c1[nH]nc(-c2ccc(F)cc2)c1-c1ccncc1 | 74 | –
73 | Fc1ccc(-c2nn(CCN3CCOCC3)cc2-c2ccnc(F)c2)cc1 | – | > 10000 nM
74 | O=S(=O)(c1ccc(F)cc1)N1CCC(c2[nH]nc(-c3ccc(F)cc3)c2-c2ccncc2)CC1 | 28 | –
75 | OCCn1cc(-c2ccnc(NCc3ccc(F)cc3)c2)c(-c2ccc(F)cc2)n1 | – | 140 nM and 800 nM
76 | C[C@H](NC(=O)NCCc1ccccc1)c1[nH]nc(-c2ccc(F)cc2)c1-c1ccncc1 | 36 | –
77 | CC(C)c1ccc(S(=O)(=O)N[C@@H](C)c2[nH]nc(-c3ccc(F)cc3)c2-c2ccncc2)cc1 | 76 | –
78 | O=S(=O)(NCc1[nH]nc(-c2ccc(F)cc2)c1-c1ccncc1)c1cc(Cl)cc(Cl)c1 | 45 | –
79 | O=C(NCc1[nH]nc(-c2ccc(F)cc2)c1-c1ccncc1)c1ccc(F)c(C(F)(F)F)c1 | 22 | –
80 | COc1ccc(CC(=O)N[C@@H](C)c2[nH]nc(-c3ccc(F)cc3)c2-c2ccncc2)cc1 | 22 | –
81 | O=S(=O)(NCc1[nH]nc(-c2ccc(F)cc2)c1-c1ccncc1)c1cccc(Cl)c1Cl | 30 | –
82 | CN(C)CCNC(=O)NCCCc1[nH]nc(-c2ccc(F)cc2)c1-c1ccncc1 | 11 | –
83 | COc1ccc(OC)c(S(=O)(=O)N[C@@H](C)c2[nH]nc(-c3ccc(F)cc3)c2-c2ccncc2)c1 | 40 | –
84 | O=C(NCc1[nH]nc(-c2ccc(F)cc2)c1-c1ccncc1)c1cccc(Cl)c1Cl | 33 | –
85 | C[C@@H](NC(=O)c1ccno1)c1[nH]nc(-c2ccc(F)cc2)c1-c1ccncc1 | 27 | –
86 | CC(=O)Nc1ccc(S(=O)(=O)NCCc2[nH]nc(-c3ccc(F)cc3)c2-c2ccncc2)cc1 | 24 | –
87 | C[C@@H](NC(=O)c1ccccc1F)c1[nH]nc(-c2ccc(F)cc2)c1-c1ccncc1 | 75 | –
88 | C[C@H](NC(=O)c1cccc(F)c1F)c1[nH]nc(-c2ccc(F)cc2)c1-c1ccncc1 | 32 | –
89 | C[C@@H](NS(=O)(=O)c1ccc(F)c(Cl)c1)c1[nH]nc(-c2ccc(F)cc2)c1-c1ccncc1 | 98 | –
90 | CC(C)=CC(=O)N[C@H](C)c1[nH]nc(-c2ccc(F)cc2)c1-c1ccncc1 | 28 | –
